Key:
Assay type in all cases: cell-based
Colletotrichum coccodes [1] = assay: Pure volatile in 1L jars above plates containing the pathogens, colony diameter (Example 2); conditions: 2.5 μL/L volatile, 1L jar, 23 degree C
Experimental: (§1) […] were chosen as prototype volatiles to investigate the use of plant volatiles for the control of potato blemish pathogens. Three main potato blemish pathogens were used in the study: Erwinia carotovora, Colletotrichum coccodes and Helminthosporium solani.
(§2) 1L jars were used. Pure volatile (2.5-10 μt/L) was inserted into the jars onto the side of the jar above 6cm plates containing the pathogens. Controls and treatments were incubated at 23 degree C. until the control filled the plate. Diameter of the colony (mm) from control and treatments were evaluated daily using calipers.

Erwinia carotovora [2] = assay: as above; conditions: 2.5 μL/L volatile, 1L jar, 23 degree C
Experimental: as §1, §2

Helminthosporium solani [3] = assay: as above; conditions: 2.5 μL/L volatile, 1L jar, 23 degree C
Experimental: as §1, §2

Colletotrichum coccodes [4] = assay: Volatile exposure of pathogen cultures on PDA in sealed mason jars, radial growth (Example 1); conditions: pure volatile, 7 days at 23° C
Experimental: (§3) In this study, acetaldehyde and 2E-hexenal were chosen as prototype volatiles in order to investigate the use of plant volatiles for the control of potato blemish pathogens in fresh-pack potato packaging. The two main potato blemish disease pathogens, Colletotrichum coccodes (black dot) and Helminthosporium solani (silver scurf) were used in the study. Cultures of the two pathogens, grown on PDA, were exposed to the pure volatiles in sealed mason jars for 7 days at 23° C. Radial fungal growth and the concentration of the volatile were measured daily and the concentration required to inhibit fungal growth was determined. […] 2E-hexenal could be used to control these and other pathogens and extend the storability and shelf-life of potatoes.

Helminthosporium solani [5] = assay: as above; conditions: pure volatile, 7 days at 23° C
Experimental: as §3

Erwinia carotovora [6] = assay: as above; conditions: pure volatile, 7 days at 23° C

Measured: inhibition of pathogen growth

CCC/C=C/C=O [2E-Hexanal]
nearly complete inhibition: Colletotrichum coccodes [1] | Erwinia carotovora [2] | Helminthosporium solani [3]

CCC/C=C/C=O [2E-hexenal]
nearly complete inhibition: Colletotrichum coccodes [4] | Helminthosporium solani [5] | Erwinia carotovora [6]

Source: US20130236610A1, “COMPOSITIONS AND METHODS FOR INHIBITING POTATO PATHOGENS” (UNIVERSITY OF IDAHO, priority 2010, published 2013)
